How the values were obtained:
[1] = tested on: SSTR-binding sites at the cell surface of H727 cells; experiment: competitive [125I]-Tyr11-SST14 radioligand binding assay, H727 cells; set-up: species or system human; settings: only background binding, unlabeled peptide 0.01 nM–10 µM
Protocol: (§1) Peptide iodination and radioligand-binding assays were performed as previously described ([21]). Briefly, 10 nmol Tyr^11-somatostatin-14 (Tyr^11–SST14, Bachem, Bubendorf, Switzerland) were iodinated by the chloramin T method ([22]) with 1 mCi carrier-free Na^125I (NEZ033L010MC, Perkin Elmer, Waltham, MA, USA) and purified by HPLC (Analytic HPLC 1200 Series, Agilent, Santa Clara, CA, USA) (see Figure S1 in Supplementary Material). For competitive radioligand binding assays, 40,000 cells were seeded in 96-well plates and grown overnight. The next day, cells were incubated in binding buffer (50 mM Hepes, pH 7.4, 5 mM MgCl2, 1 mM CaCl2, 0.5% w/v BSA, cOmplete protease inhibitors) containing 100,000 counts per minute (cpm) [^125I]-Tyr^11-SST14 and increasing concentrations of unlabeled peptide. After 30 min at 37°C, cells were washed with ice-cold washing buffer (50 mM Tris–HCl, pH 7.4, 125 mM NaCl, 0.05% w/v BSA), lysed with 1 N NaOH, transferred to vials, and measured in a gamma counter (Wallac 1470 Wizard, Perkin Elmer, Waltham, MA, USA). The obtained cpm values were analyzed with GraphPad Prism 5.04, and IC50 values were calculated by non-linear regression (one site—fit logIC50, least squares fit).

[2] = tested on: SSTR-binding sites at the cell surface of QGP-1 cells; experiment: competitive [125I]-Tyr11-SST14 radioligand binding assay, QGP-1 cells; set-up: species or system human; settings: only background binding, unlabeled peptide 0.01 nM–10 µM
Protocol: as §1

[3] = tested on: SSTR-binding sites at the cell surface of BON cells; experiment: competitive [125I]-Tyr11-SST14 radioligand binding assay, BON cells; set-up: species or system human; settings: BON whole cells, 30 min at 37°C, unlabeled peptide 0.01 nM–10 µM, gamma counter; read-out: IC50, displacement of [125I]-Tyr11-SST14
Protocol: as §1

[4] = tested on: SSTR-binding sites at the cell surface of UMC-11 cells; experiment: competitive [125I]-Tyr11-SST14 radioligand binding assay, UMC-11 cells; set-up: species or system human; settings: UMC-11 whole cells, 30 min at 37°C, unlabeled peptide 0.01 nM–10 µM, gamma counter; read-out: IC50, displacement of [125I]-Tyr11-SST14
Protocol: as §1

[5] = tested on: human SSTR2 in QGP-1-SSTR2 cells; experiment: microscopic SSTR2 internalization assay; type: cell-based; settings: QGP-1-SSTR2, 1 µM ligand, 30 min at 37°C, confocal microscopy
Protocol: (§2) Cells were grown on coverslips for at least 24 h. […] Cells were washed with PBS, fixated in 1:1 acetone/methanol for 2 min, and incubated with anti-SSTR2 primary antibody (sc365502, Santa Cruz Biotechnology, Dallas, TX, USA) diluted 1:50 in PBS overnight at 4°C. After washing with PBS, cells were incubated with a Cy3-conjugated goat anti-mouse secondary antibody (#115-165-146, Jackson ImmunoResearch, West Grove, PA, USA) diluted 1:1,000 in PBS for 1 h at room temperature. After washing with PBS, coverslips were briefly dipped into 96% ethanol, air-dried, and mounted on glass slides with Immu-Mount (Thermo Fisher Scientific, Waltham, MA, USA). Mounted cells were imaged using a confocal laser scanning microscope (LSM510, Carl Zeiss, Jena, Germany) using a helium–neon laser at 543 nm, LP560 emission filter, and 40× or 63× NeoFluar oil immersion objectives. RIN-1038-SSTR2-GFP cells were not immunostained after fixation, but otherwise treated the same. To visualize GFP fluorescence, an argon laser at 488 nm, LP505 emission filter was utilized on the same microscope.

[6] = tested on: human SSTR2 in BON-SSTR2 cells; experiment: microscopic SSTR2 internalization assay; type: cell-based; settings: BON-SSTR2, 1 µM ligand, 30 min at 37°C, confocal microscopy
Protocol: as §2

[7] = tested on: SSTR-binding sites at the cell surface of LCC-18 cells; experiment: competitive [125I]-Tyr11-SST14 radioligand binding assay, LCC-18 cells; set-up: species or system human; settings: only background binding, unlabeled peptide 0.01 nM–10 µM
Protocol: as §1

[8] = tested on: metastatic, well- or moderately differentiated, non-functional enteropancreatic NET; settings: patients, CLARINET trial, placebo 18 months; cited from earlier work
Text: Somatostatin analogs (SSAs) are well-established antisecretory drugs with a favorable safety profile that have been used as first-line treatment to control hormone hypersecretion in functionally active neuroendocrine tumors (NET) for more than 30 years ([1], [2]). […] The relevance of SSAs in antiproliferative treatment has been a matter of debate for the past two decades.

| Substance | displacement of [125I]-Tyr11-SST14 binding [1] | displacement of [125I]-Tyr11-SST14 binding [2] | IC50 [3] [nM] | IC50 [4] [nM] | SSTR2 internalization / redistribution [5] | SSTR2 internalization / redistribution [6] | displacement of [125I]-Tyr11-SST14 binding [7] | median progression-free survival [8] |
| --- | --- | --- | --- | --- | --- | --- | --- | --- |
| somatostatin-14 | no displacement | no displacement | 0.5 ± 0.16 | 0.7 ± 0.29 | functional, ligand-dependent SSTR2 internalization | functional, ligand-dependent SSTR2 internalization | no displacement |  |
| lanreotide |  |  |  |  |  |  |  | not reached |

From paper PMC5897986 (Frontiers in Endocrinology, 2018)
